Experimental findings from US8987332B2, “Methods of treating inflammatory conditions” (The Regents of the University of California, priority 2009, dated 2015) are described below.

In one experiment the test system is WT mice on 60% HFD. The experiment can be described thus: Hyperinsulinemic/euglycemic clamp in HFD-fed WT mice. The experiment is classed as in vivo, mouse. To be noted: gavage 300 μl EPAX 1050TG, clamp 4 hr after gavage, vs saline.
The test system of a further experiment is IPMacs from WT mice. The experiment can be described thus: In vitro transwell chemotaxis assay, WT IPMacs. To be noted: pretreatment 3 hr before exposure to 3T3-L1 adipocyte conditioned media. It is filed as cell-based, mouse. The method, then: (§1) It seemed possible that the reduction in ATM content in WT animals on the ω-3 FA diet reflected decreased chemotaxis of macrophages. To test this hypothesis, we measured the migratory capacity of IPMacs from WT and GPR120 KO mice using an in vitro transwell chemotaxis assay. […] Similar experiments were performed using the specific chemokine, monocyte chemotactic protein-1 (MCP-1) as a chemoattractant, rather than CM, and these experiments yielded identical results (FIG. 6D).
In vitro chemotaxis assay was performed as previously described (Patsouris et al., 2009). Briefly, mature 3T3-L1 adipocytes, more than 99% of cells showing large lipids droplets (12 days after differentiation protocol initiation), were used for preparation of conditioned media. […] For the migration per se, 100,000 IPMacs from WT or GPR120 KO mice were used per condition. The IPMacs were placed in the upper chamber of an 8 μm polycarbonate filter (24-transwell format; Corning, Lowell, Mass.), whereas adipocyte conditioned medium or MCP-1 treatment was placed in the lower chamber. After 3 hr of migration, cells were fixed in formalin and stained with 4′,6-diamidino-2-phenylindole and observed.

The next experiment relates to L6 myocytes. The experiment can be described thus: 2-deoxyglucose uptake in L6 myocytes. To be noted: 100 μM, compared to vehicle treated cells. The experiment is classed as cell-based. As to the method: FIG. 11, related to FIG. 5. Hyperinsulinemic/euglycemic clamp studies in bone marrow transplanted animals and muscle expression of GPR120. For bone marrow transplantation studies, WT or GPR120 KO mouse bone marrow (BM) was injected into irradiated WT C57B1/6 animals after 8 weeks for BM reconstitution, GPR120 was >90% reduced in circulating monocytes. Animals were then kept on either chow or switched to 60% HFD for weeks (±supplemention with ω-3 FAs for 5 weeks). (A) BMT GPR120 KO animals on chow are insulin resistant compared to WT controls. This effect is mediated by decreased GIR and a greater suppression of HGP in WT animals compared to KOs (n=5 for WT and n=6 per KO group). (B) BMT GPR120 KO animals on HFD supplemented with […] FAs (+ω3) are insulin resistant compared to WT controls. This effect is shown by decreased GIR, decreased IS-GDR, and a greater suppression of HGP in WT animals compared to KOs. (C) GPR120 expression levels in various tissues. RPS3 was the internal control for normalization. GPR120 is not expressed in soleus, or EDL muscle. […] Data are expressed as mean±SEM. *, p<0.05 compared to WT in (A) and (B).
HA-GLUT4-eGFP expression vector were electroporated into day 8 post differentiated 3T3-L1 adipocytes for monitoring of GLUT4 translocation as previously described (Yoshizaki et al., 2007). […] Glucose uptake was measured as previously described (Imamura et al., 1999).

Experiment [1] relates to 3T3-L1 adipocytes. Nature of the experiment: GLUT4 translocation and 2-deoxyglucose uptake in 3T3-L1 adipocytes. The experiment is classed as cell-based. To be noted: for glucose transport: pretreated 30 min. The method, then:
FIG. 4. GPR120 activation enhances GLUT4 translocation and glucose uptake. (A) 3T3-L1 adipocytes were transfected with a dually tagged HA-GLUT4-GFP construct. Total GLUT4 expression was determined by GFP fluorescence, and GLUT4 translocation to the cell surface after 100 ng/ml insulin or 100 μM DHA stimulation for 30 min was determined by indirect immunofluorescence of the HA-conjugated with Alexa 594 in fixed cells. Translocation following insulin stimulation was expressed as a percentage of the maximum response. Bar graph represents the mean±SEM data from four independent experiments. *, p<0.05 vs. vehicle treatment. (B) Glucose uptake was measured in WT and GPR120 KO mouse primary adipose tissue and in (C-F) 3T3-L1 adipocytes±siRNA with the indicated treatment. […] Data are expressed as mean±SEM of three independent experiments in triplicate. *, p<0.05 vs. basal activity. The indicated siRNA knockdown efficiency was validated by western blotting. See also FIG. 10.
HA-GLUT4-eGFP expression vector were electroporated into day 8 post differentiated 3T3-L1 adipocytes for monitoring of GLUT4 translocation as previously described (Yoshizaki et al., 2007). For 2-DOG assay, 3T3-L1 adipocytes were pretreated for 30 min with the indicated drug; and stimulated with 3 ng/ml of insulin for 30 min at 37° C. L6 myocytes were pretreated for 30 min with 100 μM DHA and then stimulated with 100 ng/ml of insulin for 30 min. Glucose uptake was measured as previously described (Imamura et al., 1999).

Experiment [2] relates to IPMacs from GPR120 KO mice. Nature of the experiment: In vitro transwell chemotaxis assay, GPR120 KO IPMacs. It is filed as cell-based, mouse. To be noted: pretreatment before exposure to conditioned media. The method, then:
as §1
In vitro chemotaxis assay was performed as previously described (Patsouris et al., 2009). Briefly, mature 3T3-L1 adipocytes, more than 99% of cells showing large lipids droplets (12 days after differentiation protocol initiation), were used for preparation of conditioned media. Treatment with the 100 μM DHA for 6 hr was performed in serum-free DMEM cultured IPMacs. For the migration per se, 100,000 IPMacs from WT or GPR120 KO mice were used per condition. The IPMacs were placed in the upper chamber of an 8 μm polycarbonate filter (24-transwell format; Corning, Lowell, Mass.), whereas adipocyte conditioned medium or MCP-1 treatment was placed in the lower chamber. After 3 hr of migration, cells were fixed in formalin and stained with 4′,6-diamidino-2-phenylindole and observed.

Experiment [3] deals with 3T3-L1 adipocytes. The experiment can be described thus: Akt and IRS-1 phosphorylation in 3T3-L1 adipocytes (western blotting). The experiment is classed as cell-based. As to the method:
FIG. 10, related to FIG. 4. DHA activates Akt phosphorylation in a GPR120-dependent manner. (A) Differentiated 3T3-L1 adipocytes were transfected with scrambled or GPR120 siRNA and then 48 hr after siRNA transfection, cells were treated with 100 μM of DHA 30 min prior to insulin (3 ng/ml) treatment for 7 min followed by western blotting with phosphorylated Akt (S473) antibody. […] Data are expressed as the mean±SEM of three independent experiments. *, p<0.05 versus basal. (B) Cells were treated with the PI3K inhibitor LY294002 (50 μM) for 30 min before DHA (100 μM) or insulin (3 ng/ml) treatment. (C) Phosphorylation of IRS-1 was detected after DHA or insulin treatment of 3T3-L1 adipocytes. (D) Schematic diagram of GPR120-mediated Akt activation in 3T3-L1 adipocytes.
(§2) Proteins from tissues or cell lysates were extracted with radioimmune precipitation buffer in the presence of phosphatase inhibitors and protease inhibitors (Roche Applied Science). […] of proteins/lane were separated on a 10% polyacrylamide, precast SDS gel (Bio-Rad) followed by transfer on polyvinylidene difluoride membrane (Immobilon, Millipore), and western blotting was performed as described (Nguyen et al., 2005) with indicated antibodies. […]

The test system of experiment [4] is RAW 264.7 cells. The experiment can be described thus: LPS-induced inflammatory signaling and cytokine secretion in RAW 264.7 cells. It is filed as cell-based, mouse. To be noted: for LPS-induced phosphorylation of JNK and IKKβ, IκB degradation, cytokine secretion and inflammatory gene expression level: pretreated 1 hr. An excerpt:
FIG. 1. Expression level of GPR120 and GPR120-mediated anti-inflammatory response in RAW 264.7 cells. (A) The mRNA expression pattern of various lipid sensing GPCRs is shown in adipose tissue, (B) CD11c+ bone marrow-derived dendritic cells (BMDCs), bone marrow-derived macrophages (BMDMs), IPMacs, 3T3-L1 preadipocytes, differentiated 3T3-L1 adipocytes, RAW 264.7 cells and L6 myocytes. Ribosomal protein S3 (RPS3) was used as internal control. (C) Expression of GPR120 in SVF, adipocytes and hepatic Kupffer cells from chow (NC)- or HFD-fed mice was examined by q-PCR. Data are expressed as the mean±SEM of at least three independent experiments in triplicate. *, p<0.05 versus NC. (D) RAW 264.7 cells, transfected with scrambled (Scr) or GPR120 #2 siRNA (GPR120 KD), were treated with 100 μM of GW9508 for 1 hr prior to LPS (100 ng/ml) treatment for 10 min and then subjected to western blotting. […] (E) Cytokine secretion level was measured in RAW 264.7 cells by ELISA. Data are expressed as the mean±SEM of three independent experiments. *, p<0.05 versus LPS treatment in scrambled siRNA transfected cells. See also FIGS. 8 and 9.
Proteins from tissues or cell lysates were extracted with radioimmune precipitation buffer in the presence of phosphatase inhibitors and protease inhibitors (Roche Applied Science). […] of proteins/lane were separated on a 10% polyacrylamide, precast SDS gel (Bio-Rad) followed by transfer on polyvinylidene difluoride membrane (Immobilon, Millipore), and western blotting was performed as described (Nguyen et al., 2005) with indicated antibodies. For immunoprecipitations, lysates were incubated with 1 μg of anti-β-arrestin2, TAK1 antibody (Cell signaling), or GFP antibody (Santa Cruz Biotechnology) overnight at 4° C. and immune complexes precipitated with Protein A/G-conjugated beads (Invitrogen). Beads were washed with PBS and resuspended in sample buffer. Lysates and immune complexes were separated by SDS-PAGE, subjected to western blotting.
TNF-α and IL-6 were directly quantified from RAW 264.7 cells with or without GPR120 knockdown, or IPMacs culture medium. Cells were treated with 100 μM GW9508 or DHA for 1 hr prior to treat 100 ng/ml LPS for 6 hr and then collect medium from the cells and subjected to ELISA according to the manufacturer's instructions (BIOSOURCE). For GLP-1 measurement, mouse blood was collected 1 hr after indicated diet feeding. Adequate inhibitors (protease inhibitors and Diprotin A as DPP IV inhibitor) were used while blood was collecting and then subjected to ELISA to the manufacturer's instructions (ALPCO, Salem, N.H.).

For experiment [5], the system named is RAW 264.7 cells. Nature of the experiment: ERK1/2 phosphorylation in RAW 264.7 cells. It is filed as cell-based, mouse. To be noted: 100 μM, 5 min. The method, then: FIG. 9, related to FIGS. 2 and 3. DHA-stimulated GPR120 inhibits TNF-α, TLR2 and TLR3-induced inflammation via a β-arrestin2 dependent mechanism. (A) ERK1/2 phosphorylation stimulated by GPR120 activation in RAW 264.7 cells transfected with scrambled or GPR120 siRNA. Cells were treated with 100 μM of DHA, α-linolenic acid or palmitic acid for 5 min. […] Data are expressed as the mean±SEM of three independent experiments. *, p<0.05 versus scrambled siRNA transfected cells. (B) Differentiated 3T3-L1 adipocytes were transfected with scrambled or GPR120 siRNA (GPR120 KD) and then 48 hr after siRNA transfection, cells were treated with 100 μM of DHA or GW9508 for 1 hr prior to TNF-α (10 ng/ml) treatment for 7 min prior to harvesting and then subjected to western blotting with the indicated antibodies. (C) RAW 264.7 cells, transfected with scrambled or GPR120 siRNA (GPR120 KD), were treated with 100 μM of DHA for 1 hr prior to 10 min TLR2 ligand, Pam3CSK4 (50 ng/ml), or TLR3 ligand, poly(I:C) (1 μg/ml), treatment and then subjected to western blotting. (D) To characterize the interaction site between β-arrestin2 and GPR120 or TAB1, HA-tagged GPR120 and FLAG-tagged serial C-terminal deletion mutants of β-arrestin2 (full, 1-300, 1-253, 1-176, and 1-163) or an N-terminal deletion mutant (80-410) were cotransfected in 293 cells. For immunoprecipitation of FLAG-βarr2 and HA-GPR120, cells were treated with DHA for 30 min, while DHA was used for 1 hr to detect endogenous TAB1 and FLAG-βarr2 interactions.
as §2

[6] abbreviates: 100 μM 1 hr prior to LPS 100 ng/ml 10 min.

As for `CC/C=C\C/C=C\C/C=C\C/C=C\C/C=C\C/C=C\CCC(=O)O` [DHA], the “whole body glucose homeostasis after acute treatment” value in the experiment with WT mice on 60% HFD is recorded as “no effect”. Further, in the experiment with IPMacs from WT mice, the “inhibition of chemotactic capacity” value is 80%. Also, in the experiment on L6 myocytes, the glucose uptake result is “not altered”. The “GLUT4 translocation to the cell surface” value in the experiment on 3T3-L1 adipocytes [1] (100 μM, 30 min) is reported as “increased”. In the experiment with 3T3-L1 adipocytes [1] (3T3-L1 adipocytes), the “effect on glucose uptake relative to the effect of insulin” value was 30-50%. In addition, in the experiment on 3T3-L1 adipocytes [1], the glucose transport result is reported as “increase”. In experiment [2], the “effect on chemotactic capacity” value is listed as “no significant effect”. Also, in the experiment on 3T3-L1 adipocytes [3], the IRS-1 phosphorylation result is reported as “did not stimulate”. The “phosphorylation of Akt” value in the experiment with 3T3-L1 adipocytes [3] (100 μM) is given as “modest effect”. Also, in the experiment on RAW 264.7 cells [4] (RAW 264.7 cells), the “LPS-induced TAK1 and MKK4 phosphorylation” value is given as “abrogated”; the “LPS-induced phosphorylation of JNK and IKKβ, IκB degradation, cytokine secretion and inflammatory gene expression level” value is “strongly inhibited”. The ERK phosphorylation result with RAW 264.7 cells [5] is given as “activated”.

Take `O=C(O)CCc1ccc(NCc2cccc(Oc3ccccc3)c2)cc1` [GW9508]: the glucose transport entry with 3T3-L1 adipocytes [1] was “stimulatory effect”. For the same molecule, in the experiment with RAW 264.7 cells [4] (setting [6]), the IκB degradation entry was “prevented”; the “LPS stimulated phosphorylation of IKKβ and JNK” value is on record as “inhibited”. For the same molecule, the “TNF-α and IL-6 secretion” value in the experiment on RAW 264.7 cells [4] (100 μM 1 hr prior to LPS 100 ng/ml 6 hr, ELISA) is given as “inhibited”. Besides, in the experiment on RAW 264.7 cells [4] (RAW 264.7 cells), the “LPS-induced phosphorylation of JNK and IKKβ, IκB degradation, cytokine secretion and inflammatory gene expression level” value is “strongly inhibited”.

On to `CCCCCCCCCCCCCCCC(=O)O` [palmitic acid], for which the ERK phosphorylation entry in the experiment with RAW 264.7 cells [5] was “activated”.

As to `CC/C=C\C/C=C\C/C=C\CCCCCCCC(=O)O` [α-linolenic acid], the ERK phosphorylation result with RAW 264.7 cells [5] is “activated”.
